According to patent publication US11136315B2, “CXCR2 antagonist” (MEDSHINE DISCOVERY INC., priority 2018, dated 2021):

The compounds below were run against CXCR2 (Homo sapiens (Human), UniProt P25025) (assay: PathHunter CXCR2 β-arrestin cell assay, antagonism of CXCL8 (EC80)). Conditions: PathHunter CXCR2 β-arrestin cells, CXCL8 agonist at EC80.
Assay type: cell-based
Protocol: The IC50 values were determined to evaluate the antagonistic activity of the test compounds against CXCR2.
PathHunter® CXCR2 β-arrestin cells (DiscoverX) were grown under normal conditions and seeded on a white-walled 384-microwell plate at 20 μL/well. Before testing, the cells were incubated at 37° C. for an appropriate time. The test compounds were serially diluted in DMSO at a three-fold dilution factor to obtain 8 serially diluted test compounds. Shortly before the test, the above serially diluted test compounds were further diluted with test buffer to 5 times the test concentration. 5 μL of the further diluted test compounds was added to the cells and then the cells were incubated at 37° C. for 30 minutes. The vehicle concentration was 1%. 5 μL of 6×EC80 agonist (CXCL8) buffer was added to the cells and then the cells were incubated at 37° C. for 90 minutes. 15 μL (50% v/v) of PathHunter detection reagent mixture was added in one portion, followed by one-hour incubation to generate the test signal. The microplates were read on a PerkinElmer Envision™ instrument for chemiluminescence signal. The biological activity of the test compounds was analyzed by CBIS data analysis suite (ChemInnovation, CA) and shown as IC50 values.

CXCR2, sequence (P25025 whole entry): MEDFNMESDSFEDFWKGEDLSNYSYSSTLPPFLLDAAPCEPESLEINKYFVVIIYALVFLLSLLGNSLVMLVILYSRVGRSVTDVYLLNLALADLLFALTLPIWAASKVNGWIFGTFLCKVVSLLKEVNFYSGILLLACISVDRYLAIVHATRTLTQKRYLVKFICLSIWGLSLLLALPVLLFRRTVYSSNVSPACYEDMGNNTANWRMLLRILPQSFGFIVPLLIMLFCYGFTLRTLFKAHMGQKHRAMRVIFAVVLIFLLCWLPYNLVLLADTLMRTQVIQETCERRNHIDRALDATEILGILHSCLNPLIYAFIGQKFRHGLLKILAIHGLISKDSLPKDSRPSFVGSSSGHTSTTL

IC50	SMILES
152 nM	O=C(Nc1ccc(Cl)c(S(=O)(=O)[C@H]2CCCNC2)c1O)NC1CCCc2occc21 (single isomer, unassigned) [WX001A]
45 nM	CC(C)S(=O)(=O)c1c(Cl)ccc(NC(=O)NC2CCCc3occc32)c1O (single isomer, unassigned) [WX002A]
43 nM	CC(C)(C)OC(=O)N1CCC[C@H](S(=O)(=O)c2c(Cl)ccc(NC(=O)NC3CCCc4ccoc43)c2O)C1 (single isomer, unassigned) [WX004A]
14 nM	CC(C)(C)S(=O)(=O)c1c(Cl)ccc(NC(=O)NC2CCCc3ccoc32)c1O (single isomer, unassigned) [WX005A]
42 nM	CCS(=O)(=O)c1c(Cl)ccc(NC(=O)NC2CCCc3ccoc32)c1O (single isomer, unassigned) [WX007A]
134 nM	O=C(Nc1ccc(Cl)c(S(=O)(=O)CCNC(=O)C2CC2)c1O)NC1CCCc2ccoc21 (single isomer, unassigned) [WX016A]
72 nM	COC(=O)NCCS(=O)(=O)c1c(Cl)ccc(NC(=O)NC2CCCc3ccoc32)c1O (single isomer, unassigned) [WX017A]
133 nM	O=C(CS(=O)(=O)c1c(Cl)ccc(NC(=O)NC2CCCc3ccoc32)c1O)NCC(F)(F)F (single isomer, unassigned) [WX018A]
177 nM	CC(C)(Cc1ccccc1)S(=O)(=O)c1c(Cl)ccc(NC(=O)N[C@H]2CCCc3ccoc32)c1O (single isomer, unassigned) [WX020A]
720 nM	O=C(Nc1ccc(Cl)c(S(=O)(=O)C2CC3(CNC3)C2)c1O)NC1CCCc2ccoc21 (single isomer, unassigned) [WX021A]
366 nM	O=C(Nc1ccc(Cl)c(S(=O)(=O)C2CC3(CCNCC3)C2)c1O)N[C@H]1CCCc2ccoc21 (single isomer, unassigned) [WX022A]
36 nM	O=C(Nc1ccc(Cl)c(S(=O)(=O)C2CCNCC2)c1O)N[C@H]1CCCc2ccoc21 (single isomer, unassigned) [WX023A]
525 nM	O=C(Nc1ccc(Cl)c(S(=O)(=O)C2CCCNC2)c1O)NC1CCCc2sccc21 (single isomer, unassigned) [WX024A]
667 nM	O=C(Nc1ccc(Cl)c(S(=O)(=O)C2CCCNC2)c1O)NC1CCCc2sccc21 (single isomer, unassigned) [WX024B]
139 nM	O=C(Nc1ccc(Cl)c(S(=O)(=O)C2CC2)c1O)N[C@@H]1CCCc2sccc21 (single isomer, unassigned) [WX025B]
269 nM	O=C(Nc1ccc(Cl)c(S(=O)(=O)C2CC2)c1O)N[C@H]1CCCc2ccsc21 (single isomer, unassigned) [WX027A]
2 nM	Cc1cc2c(o1)C(NC(=O)Nc1ccc(Cl)c(S(=O)(=O)[C@H]3CCCNC3)c1O)CCC2 (single isomer, unassigned) [WX029A]
245 nM	Cc1cc2c(o1)C(NC(=O)Nc1ccc(Cl)c(S(=O)(=O)[C@H]3CCCNC3)c1O)CCC2 (single isomer, unassigned) [WX029B]
122 nM	CS(=O)(=O)c1c(Cl)ccc(NC(=O)N[C@H]2CCCc3ccoc32)c1O [WX008A]
177 nM	O=C(Nc1ccc(Cl)c(S(=O)(=O)C2CCC2)c1O)NC1CCCc2ccoc21 (stereo not drawn) [WX009]
61 nM	O=C(Nc1ccc(Cl)c(S(=O)(=O)C2CCCC2)c1O)N[C@H]1CCCc2ccoc21 [WX010A]
70 nM	O=C(Nc1ccc(Cl)c(S(=O)(=O)C2CCCCC2)c1O)N[C@H]1CCCc2ccoc21 [WX011A]
232 nM	O=C(Nc1ccc(Cl)c(S(=O)(=O)CCN2C(=O)c3ccccc3C2=O)c1O)NC1CCCc2ccoc21 (stereo not drawn) [WX014]
186 nM	NCCS(=O)(=O)c1c(Cl)ccc(NC(=O)NC2CCCc3ccoc32)c1O (stereo not drawn) [WX015]
472 nM	O=C(Nc1ccc(Cl)c(S(=O)(=O)C2CC2)c1O)NC1CCCc2ncsc21 (stereo not drawn) [WX028]
15 nM	Cc1cc2c(o1)C(NC(=O)Nc1ccc(Cl)c(S(=O)(=O)[C@H]3CCCNC3)c1O)CCC2 (stereo partly drawn) [WX029]
144 nM	O=C(Nc1ccc(Cl)c(S(=O)(=O)C2CC2)c1O)NC1CCCc2cc(C(F)(F)F)oc21 (stereo not drawn) [WX032]
